The text below walks through data of patent US10098887B2, “Antiviral compounds and methods of use thereof” (Trana Discovery, Inc., priority 2010, dated 2018).

This test in a line: assays described herein (not specified).
`CCc1ccc(N2N=C(C)C(=Cc3cc(OC)c(O)c(OC)c3)C2=O)cc1` [Compound 72, 2-(4-ethylphenyl)-4-(4-hydroxy-3,5-dimethoxybenzylidene)-5-methyl-2,4-dihydro-3H-pyrazol-3-one]: the “active in the assays described herein” value is “active”.

For `CN(C)c1ccc2sc(S)nc2c1` [Compound 95, 5-(dimethylamino)-1,3-benzothiazole-2-thiol], the “active in the assays described herein” value is “active”.

Take `CCOc1ccc(C(=O)c2ccc(N3CC(C)OC(C)C3)c([N+](=O)[O-])c2)cc1` (stereo not drawn) [Compound 102, [4-(2,6-dimethyl-4-morpholinyl)-3-nitrophenyl](4-ethoxyphenyl)methanone]: the “active in the assays described herein” value is reported as “active”.

Consider `CNC(=S)N1N=C(c2ccc(OC)cc2)CC1c1ccc(N(C)C)cc1` (stereo not drawn) [Compound 40, 5-[4-(dimethylamino)phenyl]-3-(4-methoxyphenyl)-N-methyl-4,5-dihydro-1H-pyrazole-1-carbothioamide], for which the “active in the assays described herein” value is listed as “active”.

On to `O=c1cc2oc3cc(O)c(O)cc3c(-c3ccc([N+](=O)[O-])o3)c-2cc1O` [Compound 38, 2,6,7-trihydroxy-9-(5-nitro-2-furyl)-3H-xanthen-3-one], for which the “active in the assays described herein” value is “active”.

For `O=[N+]([O-])c1ccccc1SNc1ccc2c(c1)OCO2` [Compound 75, 5-{[(2-nitrophenyl)thio]amino}-1,3-benzodioxole], the “active in the assays described herein” value is given as “active”.

Take `O=C1NC(=O)N(c2ccc(Cl)cc2)C(=O)C1=Cc1ccc([N+](=O)[O-])o1` [Compound 65, 1-(4-chlorophenyl)-5-[(5-nitro-2-furyl)methylene]-2,4,6(1H,3H,5H)-pyrimidinetrione]: the “active in the assays described herein” value is on record as “active”.

`Cn1cccc1C=NN1CCN(Cc2cccc3ccccc23)CC1` [Compound 83, N-[(1-methyl-1H-pyrrol-2-yl)methylene]-4-(1-naphthylmethyl)-1-piperazinamine]: the “active in the assays described herein” value is on record as “active”.

For the molecule `CCc1cc2c(=S)c(-c3ccccc3Cl)coc2cc1OC` [Compound 47, 3-(2-chlorophenyl)-6-ethyl-7-methoxy-4H-chromene-4-thione], the “active in the assays described herein” value was “active”.

As for `O=C(c1cccs1)N1CCN(c2ccc([N+](=O)[O-])c(N3CCCC3)c2)CC1` [Compound 114, 1-[4-nitro-3-(1-pyrrolidinyl)phenyl]-4-(2-thienylcarbonyl)piperazine], the “active in the assays described herein” value is given as “active”.

For `Oc1ccc(C(c2c[nH]c3ccccc23)c2c[nH]c3ccccc23)cc1O` [Compound 86, 4-(di-1H-indol-3-ylmethyl)-1,2-benzenediol], the “active in the assays described herein” value is listed as “active”.

In the case of `CCc1ccc(C2=CC(=O)c3ccccc3C2=O)cc1` [Compound 26, 2-(4-ethylphenyl)naphthoquinone], the “active in the assays described herein” value is on record as “active”.

Turning to `CCCOc1ccc(C2Oc3ccc(Br)cc3C=C2[N+](=O)[O-])cc1OC` (stereo not drawn) [Compound 59, 6-bromo-2-(3-methoxy-4-propoxyphenyl)-3-nitro-2H-chromene], the “active in the assays described herein” value is “active”.

In the case of `CN(C)c1ccc(C(O)(c2ccc(N(C)C)cc2)c2ccc(N(C)C)cc2)cc1` [Compound 7, tris[4-(dimethylamino)phenyl]methanol], the “active in the assays described herein” value is reported as “active”.

With `O=C(O)CCCCC1SCC2NC(=O)NC21` (stereo not drawn) [Compound 8, 5-(2-oxohexahydro-1H-thieno[3,4-d]imidazol-4-yl)pentanoic acid], the “active in the assays described herein” value is recorded as “active”.
